Patent US10351575B2, “Bicyclic urea, thiourea, guanidine and cyanoguanidine compounds useful for the treatment of pain” (Array BioPharma Inc., priority 2012, dated 2019)

Tests used:
Flt4 = Flt4 (Homo sapiens (Human), UniProt P35916); assay: KinaseProfiler off-target kinase profiling; type: biochemical; conditions: 10 μM, ATP near Km
Procedure, shortened: (§1)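 10 μM test compound; ATP ~Km per kinase; n=2. Readout: POC, mean of duplicates.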

Plk2 = Plk2 (Homo sapiens (Human), UniProt Q9NYY3); assay: KinaseProfiler off-target kinase profiling; type: biochemical; conditions: 10 μM, ATP near Km
Sequence of Plk2 (Q9NYY3 whole entry): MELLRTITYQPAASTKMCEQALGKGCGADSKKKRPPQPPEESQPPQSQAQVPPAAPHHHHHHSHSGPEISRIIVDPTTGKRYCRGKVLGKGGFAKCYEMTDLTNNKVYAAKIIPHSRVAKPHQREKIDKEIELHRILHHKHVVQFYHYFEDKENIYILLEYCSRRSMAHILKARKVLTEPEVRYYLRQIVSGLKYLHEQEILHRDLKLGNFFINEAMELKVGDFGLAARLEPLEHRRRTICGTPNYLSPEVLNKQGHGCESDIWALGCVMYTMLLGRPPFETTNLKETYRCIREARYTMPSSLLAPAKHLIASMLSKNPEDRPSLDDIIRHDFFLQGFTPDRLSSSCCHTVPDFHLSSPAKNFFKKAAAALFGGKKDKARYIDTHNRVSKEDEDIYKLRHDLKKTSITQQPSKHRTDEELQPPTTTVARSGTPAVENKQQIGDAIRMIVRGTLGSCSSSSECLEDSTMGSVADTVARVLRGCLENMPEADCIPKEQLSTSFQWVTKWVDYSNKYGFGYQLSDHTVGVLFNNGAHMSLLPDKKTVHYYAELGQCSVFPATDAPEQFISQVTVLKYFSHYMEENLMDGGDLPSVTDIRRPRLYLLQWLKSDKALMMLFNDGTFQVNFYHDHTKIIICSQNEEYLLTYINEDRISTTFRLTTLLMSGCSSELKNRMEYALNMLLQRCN
Procedure, shortened: as §1

Sequence of Flt4 (P35916 25-1363): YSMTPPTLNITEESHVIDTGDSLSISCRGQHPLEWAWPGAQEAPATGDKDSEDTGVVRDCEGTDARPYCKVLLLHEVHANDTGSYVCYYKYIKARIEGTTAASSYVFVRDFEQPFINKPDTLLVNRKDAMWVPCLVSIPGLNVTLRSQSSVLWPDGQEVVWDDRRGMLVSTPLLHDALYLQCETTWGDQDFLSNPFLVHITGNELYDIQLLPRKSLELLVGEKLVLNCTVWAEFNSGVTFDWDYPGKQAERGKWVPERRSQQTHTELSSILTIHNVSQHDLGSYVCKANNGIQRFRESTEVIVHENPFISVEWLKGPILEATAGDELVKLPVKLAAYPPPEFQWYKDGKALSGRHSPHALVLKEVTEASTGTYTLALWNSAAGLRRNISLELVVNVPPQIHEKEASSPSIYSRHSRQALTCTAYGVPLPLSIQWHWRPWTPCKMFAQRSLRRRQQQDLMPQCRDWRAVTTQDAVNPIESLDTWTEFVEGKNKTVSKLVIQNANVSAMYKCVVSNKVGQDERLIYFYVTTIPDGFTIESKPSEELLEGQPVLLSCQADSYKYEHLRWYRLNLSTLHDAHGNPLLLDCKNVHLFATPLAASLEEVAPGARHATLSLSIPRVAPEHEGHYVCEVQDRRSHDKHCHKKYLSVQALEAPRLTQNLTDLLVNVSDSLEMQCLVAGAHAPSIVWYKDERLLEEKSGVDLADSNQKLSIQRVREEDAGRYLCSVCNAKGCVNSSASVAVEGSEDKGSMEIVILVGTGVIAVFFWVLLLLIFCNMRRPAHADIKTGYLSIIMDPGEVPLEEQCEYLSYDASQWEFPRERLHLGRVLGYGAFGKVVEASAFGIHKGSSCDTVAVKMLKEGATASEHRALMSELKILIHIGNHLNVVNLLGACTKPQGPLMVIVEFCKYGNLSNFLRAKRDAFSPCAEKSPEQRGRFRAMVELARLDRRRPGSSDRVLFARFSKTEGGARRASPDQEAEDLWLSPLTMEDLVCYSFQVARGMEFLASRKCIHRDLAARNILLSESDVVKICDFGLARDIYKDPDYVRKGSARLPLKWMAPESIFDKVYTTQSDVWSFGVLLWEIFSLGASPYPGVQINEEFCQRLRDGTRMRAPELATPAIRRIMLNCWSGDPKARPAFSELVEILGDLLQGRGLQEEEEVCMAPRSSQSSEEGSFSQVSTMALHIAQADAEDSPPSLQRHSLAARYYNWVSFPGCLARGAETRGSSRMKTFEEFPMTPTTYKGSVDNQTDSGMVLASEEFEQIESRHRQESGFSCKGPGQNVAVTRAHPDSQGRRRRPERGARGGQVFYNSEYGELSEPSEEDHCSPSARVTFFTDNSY

Row | Avg. POC (Flt4) | Avg. POC (Plk2) | Structure (SMILES)
1 | 99 POC | 102 POC | Cc1c(-c2cnn(C)c2)nn(-c2ccccc2)c1NC(=O)N[C@H]1CCCc2ccccc21 [Example 2, (S)-1-(1′,4-dimethyl-1-phenyl-1H,1′H-3,4′-bipyrazol-5-yl)-3-(1,2,3,4-tetrahydronaphthalen-1-yl)urea]
2 | 83.5 POC | 103.5 POC | Cc1c(-c2cnn(C)c2)nn(-c2ccccc2)c1NC(=O)NC1CCOc2cc(F)ccc21 (centres unmarked) [Example 12, 1-(1′,4-dimethyl-1-phenyl-1H,1′H-[3,4′-bipyrazol]-5-yl)-3-(7-fluorochroman-4-yl)urea]
3 | 106 POC | 101.5 POC | Cc1c(-c2ccc(=O)n(C)c2)nn(-c2ccccc2)c1NC(=O)NC1CN(CC(F)(F)F)Cc2ccccc21 (centres unmarked) [Example 26, 1-(4-methyl-3-(1-methyl-6-oxo-1,6-dihydropyridin-3-yl)-1-phenyl-1H-pyrazol-5-yl)-3-(2-(2,2,2-trifluoroethyl)-1,2,3,4-tetrahydroisoquinolin-4-yl)urea]
4 | 98 POC | 103 POC | COCc1ccc2c(c1)C(NC(=O)Nc1c(C)c(-c3cnn(C)c3)nn1-c1ccccc1)COC2 (centres unmarked) [Example 32, 1-(1′,4-dimethyl-1-phenyl-1H,1′H-[3,4′-bipyrazol]-5-yl)-3-(6-(methoxymethyl)isochroman-4-yl)urea]
